# Experimental data taken from ChEMBL document CHEMBL1201862, “PubChem BioAssay data set” (2004).
#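 Five concentrations, 48 hours, 96-well plates. Abbreviation: GI50, concentration required for 50% inhibition of growth.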 Calls of active or inactive are those of the source. Cut-off read from the data, not from the text of the source: active = GI50 up to about 1.1 µM and inactive = higher.
# Experiments:
# Experiment in all cases: DTP human tumour cell line panel, 48 h
# SF-268 = system: SF-268
# HL-60 = system: HL-60
# LOX IMVI = system: LOX IMVI
# SK-OV-3 = system: SK-OV-3
# HCC 2998 = system: HCC 2998
# NCI-H460 = system: NCI-H460
# NCI-H522 = system: NCI-H522
# UO-31 = system: UO-31
# SNB-19 = system: SNB-19
# OVCAR-3 = system: OVCAR-3
# TK-10 = system: TK-10
# SN12C = system: SN12C
# OVCAR-5 = system: OVCAR-5
# HOP-62 = system: HOP-62
# EKVX = system: EKVX
# UACC-257 = system: UACC-257
# IGROV-1 = system: IGROV-1
# 786-0 = system: 786-0
# A549 = system: A549
SMILES,GI50 (SF-268),GI50 (HL-60),GI50 (LOX IMVI),GI50 (SK-OV-3),GI50 (HCC 2998),GI50 (NCI-H460),GI50 (NCI-H522),GI50 (UO-31),GI50 (SNB-19),GI50 (OVCAR-3),GI50 (TK-10),GI50 (SN12C),GI50 (OVCAR-5),GI50 (HOP-62),GI50 (EKVX),GI50 (UACC-257),GI50 (IGROV-1),GI50 (786-0),GI50 (A549)
Cc1cc(C)nc(NS(=O)(=O)c2ccc(NC(=O)c3cccc4c(Nc5ccc(S(=O)(=O)Nc6cc(C)on6)cc5)c5ccccc5nc34)cc2)n1,19.7 µM (inactive),26.5 µM (inactive),18.9 µM (inactive),27.9 µM (inactive),14.8 µM (inactive),25.6 µM (inactive),16.3 µM (inactive),35 µM (inactive),15.7 µM (inactive),19.9 µM (inactive),34.4 µM (inactive),23 µM (inactive),16.7 µM (inactive),19.1 µM (inactive),24.9 µM (inactive),22.2 µM (inactive),–,–,–
CC1(Br)S(=O)(=O)OCCOS1(=O)=O,> 100 µM (inactive),> 100 µM (inactive),> 100 µM (inactive),> 100 µM (inactive),> 100 µM (inactive),> 100 µM (inactive),> 100 µM (inactive),> 100 µM (inactive),> 100 µM (inactive),> 100 µM (inactive),> 100 µM (inactive),> 100 µM (inactive),> 100 µM (inactive),> 100 µM (inactive),> 100 µM (inactive),> 100 µM (inactive),> 100 µM (inactive),> 100 µM (inactive),> 100 µM (inactive)
ON(Cc1ccccc1)C(=S)c1ccccc1,3.32 µM (inactive),0.927 µM (active),2.24 µM (inactive),14.7 µM (inactive),7.24 µM (inactive),1.93 µM (inactive),0.482 µM (active),4.03 µM (inactive),17.7 µM (inactive),2.72 µM (inactive),21.8 µM (inactive),8.41 µM (inactive),17.9 µM (inactive),4.85 µM (inactive),7.23 µM (inactive),4.72 µM (inactive),5.86 µM (inactive),4.82 µM (inactive),4.35 µM (inactive)
COc1ccc(NC(=O)C(=O)NNC(=O)c2sc(NNC(C)=O)nc2C)c([N+](=O)[O-])c1,51.8 µM (inactive),42.7 µM (inactive),40.6 µM (inactive),> 100 µM (inactive),> 100 µM (inactive),> 100 µM (inactive),30.1 µM (inactive),> 100 µM (inactive),> 100 µM (inactive),33.5 µM (inactive),> 100 µM (inactive),> 100 µM (inactive),> 100 µM (inactive),> 100 µM (inactive),> 100 µM (inactive),81.7 µM (inactive),> 10 µM (inactive),> 100 µM (inactive),> 100 µM (inactive)
CCOC(=O)CCC1(C(=O)OCC)CCCCC1=O (stereo not given),> 100 µM (inactive),> 100 µM (inactive),> 100 µM (inactive),> 100 µM (inactive),> 100 µM (inactive),> 100 µM (inactive),> 100 µM (inactive),> 100 µM (inactive),> 100 µM (inactive),> 100 µM (inactive),> 100 µM (inactive),–,> 100 µM (inactive),> 100 µM (inactive),> 100 µM (inactive),> 100 µM (inactive),> 100 µM (inactive),> 100 µM (inactive),> 100 µM (inactive)
S=C=NCCc1ccccc1 [PHENETHYLISOTHIOCYANATE],1.06 µM (active),0.385 µM (active),0.194 µM (active),1.72 µM (inactive),0.412 µM (active),0.0973 µM (active),0.193 µM (active),1.59 µM (inactive),1.73 µM (inactive),0.612 µM (active),0.813 µM (active),0.319 µM (active),1.55 µM (inactive),0.371 µM (active),16.8 µM (inactive),0.885 µM (active),0.435 µM (active),0.188 µM (active),2.39 µM (inactive)
